Measurements reported in patent publication US10510981B2, “Organic light-emitting diode display panel, fabrication method, and electronic apparatus” (Shanghai Tianma AM-OLED Co., Ltd., priority 2017, dated 2019).
In brackets after ≈: the same amount, converted by molar mass.

Assay: solubility of the compound adopted in the capping layer
Type: physicochemical
Settings: thermodynamic from solid, saturated solution, liquid chromatography against a standard curve, solvent not given
Text: The test methods may include: • (1) measuring the solubility of the compound adopted in the capping layer, where the test method may include: testing samples with different concentrations of the compound by Ultimate3000 liquid chromatographic instrument manufactured by company “waters”, plotting a standard curve, then testing a saturated solution, and calculating the solubility by combining the standard curve; • (2) measuring light extraction efficiency by an UVISEB ellipsometer from HORIBA (China) Trading Co., Ltd.; and • (3) measuring lifetime by a LTS-1004DC life tester with from supplier ENC.

solubility [µg/mL] | Structure (SMILES)
210 (≈ 307 µM) | CCCCc1ccc(N(c2ccc(C)c(C)c2)c2ccc(-c3ccc(N(c4ccc(CCCC)cc4)c4ccc(C)c(C)c4)c(C)c3)cc2C)cc1
205 (≈ 312 µM) | Cc1ccc(N(c2ccc(C(C)C)cc2)c2ccc(-c3ccc(N(c4ccc(C(C)C)cc4)c4ccc(C)cc4C)c(C)c3)cc2C)c(C)c1
312 (≈ 455 µM) | CCCCc1ccc(N(c2ccc(C)cc2C)c2ccc(-c3ccc(N(c4ccc(CCCC)cc4)c4ccc(C)cc4C)c(C)c3)cc2C)cc1
309 (≈ 491 µM) | Cc1ccc(N(c2ccc(-c3ccc(N(c4ccc(C(C)C)cc4)c4ccc(C)cc4C)cc3)cc2)c2ccc(C(C)C)cc2)c(C)c1
211 (≈ 257 µM) | Cc1cc(-c2ccc(N(c3ccc(-c4ccccc4)cc3)c3ccc(-c4ccccc4)cc3)c(C)c2)ccc1N(c1ccc(-c2ccccc2)cc1)c1ccc(-c2ccccc2)cc1
210 (≈ 225 µM) | CCc1ccc(-c2ccc(N(c3ccc(-c4ccc(CC)cc4)cc3)c3ccc(-c4ccc(N(c5ccc(-c6ccc(CC)cc6)cc5)c5ccc(-c6ccc(CC)cc6)cc5)c(C)c4)cc3C)cc2)cc1
340 (≈ 496 µM) | CCCCc1ccc(N(c2ccc(-c3ccc(N(c4ccc(C)c(C)c4)c4ccc(CCCC)c(C)c4)cc3)cc2)c2ccc(C)c(C)c2)cc1C
300 (≈ 423 µM) | C=Cc1ccc(N(c2ccc(CCCC)cc2)c2ccc(-c3ccc(N(c4ccc(CCCC)cc4)c4ccc(C=C)c(C)c4)c(C)c3)cc2C)cc1C
298 (≈ 423 µM) | C#Cc1ccc(N(c2ccc(CCCC)cc2)c2ccc(-c3ccc(N(c4ccc(CCCC)cc4)c4ccc(C#C)c(C)c4)c(C)c3)cc2C)cc1C
566 (≈ 883 µM) | CCCCc1ccc(N(c2ccc(-c3ccc(N(c4ccc(CCCC)cc4)C4CCCCC4)c(C)c3)cc2C)C2CCCCC2)cc1 [reference compound]
430 (≈ 382 µM) | Cc1cc(-c2ccc(N(c3ccc(-c4ccc(-c5ccccc5)cc4)cc3)c3ccc(-c4ccc(-c5ccccc5)cc4)cc3)c(C)c2)ccc1N(c1ccc(-c2ccc(-c3ccccc3)cc2)cc1)c1ccc(-c2ccc(-c3ccccc3)cc2)cc1 [reference compound]
